pIC50: −log10 of the molar value.
Test system: PDC KRAS tumor spheroids with HUVEC/MSC, viability
Assay: Anticancer human tumor 349418-098-R-PDC patient-derived lung adenocarcinoma cell line growth inhibition [KRAS2]
Settings: for pIC50: curve of first compound; for viability, T/C: stronger effect = lower value
Outline: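 Combination screen of spheroid viability in tumor-cell co-cultures with endothelial (HUVEC) and mesenchymal stem cell stroma. Each agent was tested in half-log dilutions, topping at clinical Cmax or at 10 microM without a known Cmax.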

[1] = second compound 0.1 µM, first compound 0.0316 µM
[2] = second compound 0.1 µM, first compound 0.1 µM
[3] = second compound 0.1 µM, first compound 0.316 µM
[4] = second compound 0.1 µM, first compound 1 µM
[5] = second compound 0.1 µM, first compound 3.16 µM
[6] = second compound 0.1 µM, first compound 10 µM
[7] = second compound 0.316 µM, first compound 0.0316 µM
[8] = second compound 0.316 µM, first compound 0.1 µM
[9] = second compound 0.316 µM, first compound 0.316 µM
[10] = second compound 0.316 µM, first compound 1 µM
[11] = second compound 0.316 µM, first compound 3.16 µM
[12] = second compound 0.316 µM, first compound 10 µM
[13] = second compound 1 µM, first compound 0.0316 µM
[14] = second compound 1 µM, first compound 0.1 µM
[15] = second compound 1 µM, first compound 0.316 µM
[16] = second compound 1 µM, first compound 1 µM
[17] = second compound 1 µM, first compound 3.16 µM
[18] = second compound 1 µM, first compound 10 µM
[19] = second compound 3.16 µM, first compound 0.0316 µM
[20] = second compound 3.16 µM, first compound 0.1 µM
[21] = second compound 3.16 µM, first compound 0.316 µM
[22] = second compound 3.16 µM, first compound 1 µM
[23] = second compound 3.16 µM, first compound 3.16 µM
[24] = second compound 3.16 µM, first compound 10 µM
[25] = second compound 10 µM, first compound 0.0316 µM
[26] = second compound 10 µM, first compound 0.1 µM
[27] = second compound 10 µM, first compound 0.316 µM
[28] = second compound 10 µM, first compound 1 µM
[29] = second compound 10 µM, first compound 3.16 µM
[30] = second compound 10 µM, first compound 10 µM
[31] = second compound 0.1 µM, first compound 0.00316 µM
[32] = second compound 0.1 µM, first compound 0.01 µM
[33] = second compound 0.316 µM, first compound 0.00316 µM
[34] = second compound 0.316 µM, first compound 0.01 µM
[35] = second compound 1 µM, first compound 0.00316 µM
[36] = second compound 1 µM, first compound 0.01 µM
[37] = second compound 3.16 µM, first compound 0.00316 µM
[38] = second compound 3.16 µM, first compound 0.01 µM
[39] = second compound 10 µM, first compound 0.00316 µM
[40] = second compound 10 µM, first compound 0.01 µM
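Note: spheroids exposed to compounds for seven days before readout.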

| SMILES | pIC50 (second compound 0.1 µM) | pIC50 (second compound 0.316 µM) | pIC50 (second compound 1 µM) | pIC50 (second compound 3.16 µM) | pIC50 (second compound 10 µM) | viability, T/C [1] | viability, T/C [2] | viability, T/C [3] | viability, T/C [4] | viability, T/C [7] | viability, T/C [8] | viability, T/C [9] | viability, T/C [10] | viability, T/C [13] | viability, T/C [14] | viability, T/C [15] | viability, T/C [19] | viability, T/C [20] | viability, T/C [25] | viability, T/C [26] | also measured |
| --- | --- | --- | --- | --- | --- | --- | --- | --- | --- | --- | --- | --- | --- | --- | --- | --- | --- | --- | --- | --- | --- |
| CC(C)NCC(C(=O)N1CCN(c2ncnc3c2C(C)CC3O)CC1)c1ccc(Cl)cc1 (stereo not given) + CNCc1ccccc1-c1csc(C(C)Nc2nc(C)nc3cc(OC)c(OC)cc23)c1 | 6.59 | 6.68 | 6.97 | > 7.50 | > 7.50 | 95% | 88% | 39.6% | 22.7% | 96.5% | 68.6% | 39.3% | 19.7% | 79.1% | 52.3% | 16.3% | 0.09% | 0.11% | 0.08% | 0.08% | viability, T/C [5]: 14.1%; viability, T/C [6]: 6.42%; viability, T/C [11]: 12.6%; viability, T/C [12]: 6.01%; viability, T/C [16]: 9.95%; viability, T/C [17]: 1.69%; viability, T/C [18]: 3.8%; viability, T/C [21]: 0.03%; viability, T/C [22]: 0.03%; viability, T/C [23]: 0.27%; viability, T/C [24]: 0.09%; viability, T/C [27]: 0.07%; viability, T/C [28]: 0.25%; viability, T/C [29]: 0.07%; viability, T/C [30]: 0.13% |
| CCN1CCN(Cc2ccc(Nc3ncc(F)c(-c4cc(F)c5nc(C)n(C(C)C)c5c4)n3)nc2)CC1 + CNCc1ccccc1-c1csc(C(C)Nc2nc(C)nc3cc(OC)c(OC)cc23)c1 | 8.11 | 8.43 | > 8.50 | > 8.50 | > 8.50 | 21.4% | 14.4% | 11.6% | 3.5% | 15.1% | 16.1% | 10.9% | 2.1% | 4.86% | 5.28% | 2.85% | 4.57% | 0.17% | 0.06% | 0.1% | viability, T/C [31]: 71%; viability, T/C [32]: 45.5%; viability, T/C [33]: 53.5%; viability, T/C [34]: 31.7%; viability, T/C [35]: 34.4%; viability, T/C [36]: 11.7%; viability, T/C [16]: 2.48%; viability, T/C [37]: 0.3%; viability, T/C [38]: 0.05%; viability, T/C [21]: 0.02%; viability, T/C [22]: 0.07%; viability, T/C [39]: 0.18%; viability, T/C [40]: 0.06%; viability, T/C [27]: 0.07%; viability, T/C [28]: 0.1% |
| CCNC(=O)CC1N=C(c2ccc(Cl)cc2)c2cc(OC)ccc2-n2c(C)nnc21 (stereo not given) + CNCc1ccccc1-c1csc(C(C)Nc2nc(C)nc3cc(OC)c(OC)cc23)c1 | 6.88 | 6.91 | 7.11 | > 7.50 | > 7.50 | 103% | 58.5% | 24.3% | 12.4% | 107% | 55.7% | 24.7% | 13.5% | 86.6% | 39.5% | 13.9% | 0.11% | 0.08% | 0.11% | 0.11% | viability, T/C [5]: 2.7%; viability, T/C [6]: 1.11%; viability, T/C [11]: 2.81%; viability, T/C [12]: 1.21%; viability, T/C [16]: 4.94%; viability, T/C [17]: 0.98%; viability, T/C [18]: 0.31%; viability, T/C [21]: 0.04%; viability, T/C [22]: 0.02%; viability, T/C [23]: 0.01%; viability, T/C [24]: 0.08%; viability, T/C [27]: 0.09%; viability, T/C [28]: 0.09%; viability, T/C [29]: 0.08%; viability, T/C [30]: 0.28% |
| Cn1ncnc1[C@H]1c2n[nH]c(=O)c3cc(F)cc(c23)N[C@@H]1c1ccc(F)cc1 + CNCc1ccccc1-c1csc(C(C)Nc2nc(C)nc3cc(OC)c(OC)cc23)c1 | < 7.00 | < 7.00 | < 7.00 | > 9.50 | > 9.50 | 90.4% | 86.4% | – | – | 84.3% | 76.3% | – | – | 72.1% | 64.9% | – | 0.1% | 0.16% | 0.08% | 0.13% | viability, T/C (second compound 0.1 µM, first compound 0.000316 µM): 102%; viability, T/C (second compound 0.1 µM, first compound 0.001 µM): 98%; viability, T/C [31]: 99.7%; viability, T/C [32]: 91.3%; viability, T/C (second compound 0.316 µM, first compound 0.000316 µM): 102%; viability, T/C (second compound 0.316 µM, first compound 0.001 µM): 102%; viability, T/C [33]: 90.6%; viability, T/C [34]: 93.9%; viability, T/C (second compound 1 µM, first compound 0.000316 µM): 77.5%; viability, T/C (second compound 1 µM, first compound 0.001 µM): 64.6%; viability, T/C [35]: 73.2%; viability, T/C [36]: 71.4%; viability, T/C (second compound 3.16 µM, first compound 0.000316 µM): 0.11%; viability, T/C (second compound 3.16 µM, first compound 0.001 µM): 0.09%; viability, T/C [37]: 0.09%; viability, T/C [38]: 0.08%; viability, T/C (second compound 10 µM, first compound 0.000316 µM): 0.07%; viability, T/C (second compound 10 µM, first compound 0.001 µM): 0.07%; viability, T/C [39]: 0.08%; viability, T/C [40]: 0.07% |
